From patent US20200289554A1, “BIOORTHOGONAL COMPOUNDS COMPRISING A PROPARGYL GROUP FOR TREATING CANCER” (THE UNIVERSITY COURT OF THE UNIVERSITY OF EDINBURGH, priority 2016, published 2020)

What was measured:
[1] = system: A549 cells; assay: BOOM conversion: prodrug + metal resins in cell culture, cell viability, A549; format: cell-based, human
Method: Cell viabilities for each prodrug provided as a combination with palladium is presented in FIG. 3 and gold is presented in FIG. 33 in the right of each set of two bars. […] Cells were incubated in tissue culture media containing 0.1% (v/v) DMSO and: Pd^0, Au, or Pd/Au-resins (1 mg/mL, negative control); 100 μM of each prodrug (negative control); and Pd^0, Au, or Pd/Au-resins (1 mg/mL)+100 μM of each prodrug (BOOM reaction assay). Cells incubated in 0.1% (v/v) DMSO in media were used as untreated cell control.
(§1) Following 5 days treatment, cells were incubated with PrestoBlue™ Cell Viability Reagent (Life Technologies) for 60-90 min. Fluorescence intensity values were related to the untreated cells (100% cell viability). […] Cells incubated in 0.1% (v/v) DMSO in media were used as untreated cell control.
(§2) Cell viabilities for each prodrug provided as a combination with palladium is presented in FIG. 7 in the right of each set of two bars. Data for prodrug in the absence of palladium catalyst is also provided (the left bar of each set of two bars) for comparison along with negative controls (from left to right: DMSO, Pd^0 and Doxorubicin). Cells were incubated in tissue culture media containing 0.1% (v/v) DMSO and: Pd^0-resins (1 mg/mL, negative control); 1 μM of each prodrug (negative control); and Pd^0-resins (1 mg/mL)+1 μM of each prodrug (BOOM reaction assay). Cells incubated in 0.1% (v/v) DMSO in media were used as untreated cell control.
Following 5 days treatment, cells were incubated with PrestoBlue™ Cell Viability Reagent (Life Technologies) for 90 min. Fluorescence intensity values were related to the untreated cells (100% cell viability). Data are provided in FIG. 8 for cells incubated in tissue culture media containing 0.1% (v/v) DMSO and: Pd^0-resins (1 mg/mL, negative control); 0.3-3 μM of Doxorubicin prodrug for A549 and DU145 cell lines, 0.1-1 μM of Doxorubicin prodrug for T98 cell line (negative control); 0.3-3 μM of Doxorubicin for A549 and DU145 cell lines, 0.1-1 μM of Doxorubicin for T98 cell line (positive control); and Pd^0-resin (1 mg/mL)+Doxorubicin prodrug (BOOM reaction assay). Cells incubated in 0.1% (v/v) DMSO in media were used as untreated cell control.
as §2, with “21” for “7”, “panobinostat).” for “Doxorubicin).”
(§3) The toxigenic effect as a result of in situ generation of parental drug in cell culture was determined by incubating all cells in tissue culture media containing 0.1% (v/v) DMSO and a) Pd^0, Au, or Pd/Au-resin (1 mg/mL for all cells tested, negative control); b) prodrug (negative control); or c) Pd^0, Au, or Pd/Au-resin (1 mg/mL for all cells)+prodrug (reaction assay). Cells incubated in 0.1% (v/v) DMSO in media was used as an untreated cell reference standard (100% viability). A PrestoBlue® cell viability assay as described above was carried out and fluorescent intensities compared to the untreated cell control.
A dose response study was performed for each cell line keeping the quantity of Pd^0 resin constant (0.8 mg/mL for U87G and 1 mg/mL for the rest of cell lines). All cells were plated in Dulbecco's Modified Eagle Media (DMEM) supplemented with serum (10% FBS) and L-glutamine (2 mM). […]

[2] = system: U87G cells; assay: BOOM conversion: prodrug + Pd0-resins in cell culture, cell viability, U87G; format: cell-based, human; conditions: Homo sapiens, 120 h, prodrug in combination with Pd0-resins 0.8 mg/mL, 5 days, read-out: EC50, prodrug + Pd-resins
Method: as §1, §3
A dose response study was performed for each cell line keeping the quantity of Pd^0 resin constant (0.8 mg/mL for U87G and 1 mg/mL for the rest of cell lines). […] Fluorescence intensity values (detected using a PerkinElmer EnVision 2101 multilabel reader with excitation filter at 540 nm and emissions filter at 590 nm) were determined relative to the untreated cell control.

[3] = system: U87G cells; assay: Prodrug safety dose-response cell viability (PrestoBlue), U87G; format: cell-based, human; conditions: Homo sapiens, 120 h; U87G cells, 5 days, no catalyst; read-out: EC50 (cell viability)
Method: (§4) These cell lines were selected as these are primary malignancies against which the parental drugs are currently prescribed.
(§5) The toxicities of each active agent and prodrugs were compared by performing dose-response studies. […] Cell viability was analysed by fluoresce intensity (λex=540 nm; λem=590 nm) after 60-90 min incubation with PrestoBlue™ Reagent (Life Technologies).

[4] = system: A549 cells; assay: Prodrug safety dose-response cell viability (PrestoBlue), A549; format: cell-based; conditions: Homo sapiens, 120 h, 5 days, no catalyst
Method: as §4, §5

[5] = system: T98 cells; assay: Prodrug safety dose-response cell viability (PrestoBlue), T98; format: cell-based; conditions: Homo sapiens, 120 h, 5 days, no catalyst
Method: as §4, §5

For `C#CCOc1ccc(CONC(=O)CCCCCCC(=O)Nc2ccccc2)cc1` [POB-Vor, Propargyloxybenzyl-Vorinostat], the “toxigenic effect of prodrug + Au resins” value ([1]; Au resins 1 mg/mL, prodrug 100 μM) was “strong toxigenic effect”, the EC50 ([1]; Homo sapiens, 120 h, prodrug in combination with Pd0-resins 1 mg/mL, 5 days, read-out: EC50, prodrug + Pd-resins) was 10.5 µM and the “toxigenic effect of prodrug + Pd0 resins” value ([1]; Pd0-resin 1 mg/mL, 100 μM Vorinostat prodrugs, 1 μM Doxorubicin prodrugs, 0.3 μM Panobinostat prodrug) was “strong toxigenic effect”. For the same compound, the “toxigenic effect of prodrug + Pd/Au resins” value ([1]; Pd/Au resins 1 mg/mL, prodrug 100 μM) was “strong toxigenic effect”, the EC50 [2] was 24.7 µM and the EC50 [3] was greater than 500 µM. For the same compound, the EC50 [4] was greater than 500 µM and the EC50 [5] was greater than 500 µM.
